# Laboratory results published in US7276502B2, “Thiazoles useful as inhibitors of protein kinases” (Vertex Pharmaceuticals Incorporated, priority 2003, dated 2007).
# Assays:
# SYK = SYK (Homo sapiens, UniProt P43405); test: SYK inhibition assay (standard coupled enzyme assay); type: biochemical; conditions: coupled enzyme assay, 200 μM ATP, 4 μM poly Gly-Tyr peptide, 30° C.; read-out: Ki (SYK)
# Procedure: Reactions were carried out in 100 mM HEPES (pH 7.5), 10 mM MgCl2, 25 mM NaCl, 1 mM DTT and 1.5% DMSO. Final substrate concentrations in the assay were 200 μM ATP (Sigma chemical Co.) and 4 μM poly Gly-Tyr peptide (Sigma Chemical Co.). Assays were carried out at 30° C. and 200 nM SYK. Final concentrations of the components of the coupled enzyme system were 2.5 mM phosphoenolpyruvate, 300 μM NADH, 30 μg/ml pyruvate kinase and 10 μg/ml lactate dehydrogenase.
# An assay stock buffer solution was prepared containing all of the reagents listed above, with the exception of SYK, DTT, and the test compound of interest of the present invention. 56 μl of the test reaction was placed in a 96 well plate followed by the addition of 1 μl of 2 mM DMSO stock containing the test compound of the present invnetion (final compound concentration 30 μM).
# ZAP-70 = molecular target: T1, ZAP-70 (Homo sapiens, UniProt P43403); test: ZAP-70 inhibition assay (standard coupled enzyme assay); type: biochemical; conditions: 100 μM ATP, 20 μM poly-4EY peptide, 30° C., 60 nM ZAP-70
# T1 sequence (P43403 1-619): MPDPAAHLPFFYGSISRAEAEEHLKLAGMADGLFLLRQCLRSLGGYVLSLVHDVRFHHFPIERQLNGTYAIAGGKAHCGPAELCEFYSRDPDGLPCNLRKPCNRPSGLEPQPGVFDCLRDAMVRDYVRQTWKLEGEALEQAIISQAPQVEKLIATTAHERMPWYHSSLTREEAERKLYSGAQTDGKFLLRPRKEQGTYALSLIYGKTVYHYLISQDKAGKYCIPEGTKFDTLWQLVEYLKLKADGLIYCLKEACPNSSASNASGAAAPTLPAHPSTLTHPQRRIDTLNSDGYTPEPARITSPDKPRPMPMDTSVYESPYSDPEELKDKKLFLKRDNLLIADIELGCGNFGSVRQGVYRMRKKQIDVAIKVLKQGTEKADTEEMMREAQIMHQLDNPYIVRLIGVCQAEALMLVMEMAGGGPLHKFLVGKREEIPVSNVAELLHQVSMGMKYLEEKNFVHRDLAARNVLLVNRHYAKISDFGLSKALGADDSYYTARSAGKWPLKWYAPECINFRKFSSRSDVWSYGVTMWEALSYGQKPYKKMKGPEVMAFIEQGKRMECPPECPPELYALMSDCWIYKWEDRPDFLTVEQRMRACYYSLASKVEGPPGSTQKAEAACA
# Procedure: Compounds were screened for their ability to inhibit ZAP-70 using a standard coupled enzyme assay (Fox et al., Protein Sci. 1998, 7, 2249). Assays were carried out in a mixture of 100 mM HEPES (pH 7.5), 10 mM MgCl2, 25 mM NaCl, 2 mM DTT and 3% DMSO. Final substrate concentrations in the assay were 100 μM ATP (Sigma Chemicals) and 20 μM peptide (poly-4EY, Sigma Chemicals). Assays were carried out at 30° C. and 60 nM ZAP-70. Final concentrations of the components of the coupled enzyme system were 2.5 mM phosphoenolpyruvate, 300 μM NADH, 30 μg/ml pyruvate kinase and 10 μg/ml lactate dehydrogenase.
# An assay stock buffer solution was prepared containing all of the reagents listed above, with the exception of ZAP-70 and the test compound of interest of the present invention. 55 μl of the stock solution was placed in a 96 well plate followed by addition of 2 μl of DMSO stock containing serial dilutions of the test compound of the present invention (typically starting from a final concentration of 15 μM). The plate was preincubated for 10 minutes at 30° C. and the reaction initiated by addition of 10 μl of enzyme (final concentration 60 nM). Initial reaction rates were determined with a Molecular Devices SpectraMax Plus plate reader over a 15 minute time course. Ki data was calculated from non-linear regression analysis using the Prism software package (GraphPad Prism version 3.0a for Macintosh, GraphPad Software, San Diego Calif., USA).
Structure (SMILES),Ki (SYK),Ki (ZAP-70)
CCCc1cnc(-c2ccnc(Nc3cc(C)cc(C)c3)n2)s1 [Example I-85],≤ 5 µM,≤ 5 µM
Cc1cnc(-c2ccnc(Nc3cccc(OCc4ccccc4)c3)n2)s1 [Example I-37],≤ 5 µM,≤ 5 µM
